Like-named read-outs stand apart in the source and are kept apart here.
Key:
influenza virus = system: influenza virus; parameters: method as in PMID 11825310, PMID 9588843; conditions: usually; cited from earlier work
Solubility = assay type: physicochemical; conditions: compared with the other complexes
[1] = system: Hep-2 (human larynx carcinoma cell line); conditions: read-out: half-maximal cell inhibition concentration (IC50); Hep-2 cells, MTT, 72 h, concentration range up to 2 mM
Excerpt: (§1) MDCK (Madin–Darby canine kidney, ATCC CCL34), MRC-5 (lung tissue fibroblasts of a human embryo, collection code 112) and Hep-2 (human larynx carcinoma) cell lines were obtained from the Federal Budgetary Research Institution State Research Center of Virology and Biotechnology “Vector” Rospotrebnadzor cell culture collection, Russian Federation and cultured in Eagle’s Minimum Essential Medium (EMEM) and Dulbecco’s Modified Eagle’s Medium (DMEM) in relation to 1:1 supplemented with a 10% fetal bovine serum under a humidified atmosphere (5% CO2 and 95% air) at 37 °C.
(§2) The effect of compounds 1, 2 and 3 on the cells metabolic activity was determined using the 3-[4,5-dimethylthiazol-2-yl]-2,5-diphenyltetrazolium bromide (MTT) colorimetric assay. The Hep-2 and MRC-5 cells were seeded into 96-well plates at 7 × 10^3 cells/well in a medium-containing compound with concentrations from 2 to 0.01 mM and then incubated for 72 h under 5% CO2 atmosphere. After that, 10 μL of the MTT solution (final concentration of MTT is 0.5 mg·mL^−1) was added to each well, and the plates were incubated for a further 4 h. The formazan produced was then dissolved in DMSO (100 μL/well). The optical density of the solutions was measured with a Mindray Microplate Reader MR-96A (Mindray, Shenzhen, China) at a wavelength of 492 nm. The percentage of cell viability was calculated by the formula: (optical density of the solution in the wells after incubation with the compounds/optical density of the control solution) × 100%. Wells with cells incubated in a pure nutrient medium were used as a control.

[2] = system: MRC-5 (lung tissue fibroblasts of a human embryo); conditions: read-out: half-maximal cell inhibition concentration (IC50); MRC-5 cells, MTT, 72 h, concentration range up to 2 mM
Excerpt: as §1, §2

Hep-2 cells = assay: Cellular penetration: Mo content in Hep-2 cells by ICP-AES; assay type: cell-based, human; conditions: for Cellular penetration: Hep-2 cells, 30 min to 48 h incubation, ICP-AES
Description: (§3) The cells were seeded into 6-well plates at concentration of 5 × 10^5 cells/well. The next day, solutions of 1 and 2 were added to the plates to give final concentrations of 1.0 mM and incubated with cells for 30 min, 2, 6, 24 and 48 h. Then, cells were washed three times with a sterile phosphate buffer. The cells were then removed from the wells with trypsin and centrifuged at 1000 rpm for 5 min. After centrifugation, the number of cells in each sample was calculated. The resulting cell suspension was brought to a volume of 300 µL in a sterile buffer so that each sample contained 0.5 million cells.
(§4) Molybdenum content in cells after incubation times was determined on a high-resolution spectrometer iCAP-6500 (Thermo Scientific, Waltham, MA, USA) with a cyclone-type spray chamber and “SeaSpray” nebulizer. The spectra were obtained by axial plasma viewing. Standard operating conditions of the ICP-AES system were following: power = 1150 W, injector inner diameter = 3 mm, carrier argon flow = 0.7 L min^−1, accessorial argon flow = 0.5 L min^−1, cooling argon flow = 12 L min^−1, number of parallel measurements = 3, and integration time = 5 s.

MRC-5 cells = assay: Cellular penetration: Mo content in MRC-5 cells by ICP-AES; assay type: cell-based, human; conditions: for Cellular penetration: MRC-5 cells, 30 min to 48 h incubation, ICP-AES
Description: as §3, §4

[3] = system: influenza A virus, subtype H5N1 (strain A/chicken/Chelyabinsk region/2KL/Russia/2021); assay type: cell-based
[4] = Stability in solution by changes in electronic absorption spectra; assay type: physicochemical; conditions: for behaviour in acid solution: HCl, pH~2, two days; for stability in distilled water: pH~6, two days, C~1 mM
Description: Since the compounds are soluble in water, an important factor is their stability in aqueous solutions at different pH. Stability was studied by changes in electronic absorption spectra over two days (C~1 mM, diluted 60 times to record spectra) (Figure 6). […] The most significant changes occur in the acid solution (HCl, pH~2). […] Protonation of the pyrazolate ligands, which occurs in acidic solutions, results in the dissociation of binuclear clusters. […] Unlike the pyrazole, the triazole structure has an additional free nitrogen atom that can be protonated. In this case, protonation of the triazolate ligands and formation of a neutral form [Mo12O28(μ-1,2,4-trz)4(μ-1,2,4-trzH)4] with low solubility apparently occurs. […] The complex can be dissolved back into water by adding any alkali solution, which is confirmed by the preservation of the ^1H NMR spectra (Figure S15). Typically, most POMs are not stable in weakly acidic or alkaline aqueous solutions [26, 27], while the compounds studied show the opposite situation, which is associated with both the structure based on binuclear clusters and their linkages through bridging pyrazolate or triazolate ligands.
Elemental analyses were obtained using a vario MICRO cube analyzer and EuroVector EA3000. Energy-dispersive X-ray spectroscopy (EDS) was performed on a Hitachi TM3000 TableTop SEM (Hitachi High-Technologies Corporation, Tokyo, Japan) with Bruker QUANTAX 70 EDS equipment. FTIR spectra were recorded on a Bruker Vertex 80 as KBr disks. The thermal properties (TGA) were studied on a Thermo Microbalance TG 209 F1 Iris (NETZSCH) from 25 to 800 °C at the heating rate of 10 °C·min^−1 in He flow (30 mL·min^−1). Powder X-ray diffraction patterns were collected on a Philips PW 1820/1710 diffractometer (CuKα radiation, graphite monochromator and Si as an external reference). The absorption spectra (UV–vis) were recorded on an Agilent Cary 60 UV/Vis spectrophotometer.

[5] = system: MDCK cells (Madin–Darby canine kidney cells); conditions: absence of virus, up to 500 μM, 72 h
Influenza A H1N1 = system: Influenza A H1N1; parameters: method as in PMID 24878685; conditions: Influenza A H1N1, incubation time 48h, cited from earlier work
MDCK cells = system: MDCK cells; parameters: method as in PMID 24878685; conditions: read-out: IC50 (cytotoxicity against MDCK cells); cited from earlier work
[6] = Hep-2, 1 mM solution (∽2350 µg Mo/5·10^5 cells), 30 minutes
[7] = MRC-5, 1 mM solution (∽2350 µg Mo/5·10^5 cells), 30 minutes

Molecule | EC50 (influenza virus) | IC50 [1] | IC50 [2] | Quantity of Mo accumulated by cells (Hep-2 cells; [6]) | Quantity of Mo accumulated by cells (Hep-2 cells; Hep-2, 1 mM solution, 2 hours) | Quantity of Mo accumulated by cells (Hep-2 cells; Hep-2, 1 mM solution, 6 hours) | Quantity of Mo accumulated by cells (Hep-2 cells; Hep-2, 1 mM solution, 24 hours) | Quantity of Mo accumulated by cells (Hep-2 cells; Hep-2, 1 mM solution, 48 hours) | Cellular penetration (Hep-2 cells) | Quantity of Mo accumulated by cells (MRC-5 cells; [7]) | Quantity of Mo accumulated by cells (MRC-5 cells; MRC-5, 1 mM solution, 2 hours) | Quantity of Mo accumulated by cells (MRC-5 cells; MRC-5, 1 mM solution, 6 hours) | Quantity of Mo accumulated by cells (MRC-5 cells; MRC-5, 1 mM solution, 24 hours) | Quantity of Mo accumulated by cells (MRC-5 cells; MRC-5, 1 mM solution, 48 hours) | Cellular penetration (MRC-5 cells) | behaviour in acid solution [4] | stability in distilled water [4] | cytopathic effect on MDCK cells [5] | further results
CCOC(=O)C1=C[C@@H](OC(CC)CC)[C@H](NC(C)=O)[C@@H](N)C1 [oseltamivir] | < 10 µM | – | – | – | – | – | – | – | – | – | – | – | – | – | – | – | – | – | –
CC(=O)N[C@H]1[C@H]([C@H](O)[C@H](O)CO)OC(C(=O)O)=C[C@@H]1N=C(N)N [zanamivir] | < 10 µM | – | – | – | – | – | – | – | – | – | – | – | – | – | – | – | – | – | –
(NH4)4[Mo12O28(μ-1,2,3-trz)8]·4H2O [Compound 3] | – | – | – | – | – | – | – | – | – | – | – | – | – | – | – | – | – | – | solubility in water (Solubility): significantly lower solubility in water
(NH4)4[Mo12O28(μ-1,2,4-trz)8]·1.5(1,2,4-trzH)·3H2O [Compound 2] | – | > 2000 µM | 1810 ± 40 µM | 0.18 μg Mo/5·105 cells | 0.32 μg Mo/5·105 cells | 0.33 μg Mo/5·105 cells | 0.43 μg Mo/5·105 cells | 0.42 μg Mo/5·105 cells | absence of cell penetration | 0.23 μg Mo/5·105 cells | 0.11 μg Mo/5·105 cells | 0.12 μg Mo/5·105 cells | 0.34 μg Mo/5·105 cells | 0.34 μg Mo/5·105 cells | absence of cell penetration | immediately precipitates | high stability | do not show any significant cytopathic effect | antiviral effect ([3]; MDCK cells in presence of H5N1 virus, concentration range tested up to 500 μM): no effect or insignificant effect; stability in alkaline solution (spectral change) ([4]; NaOH, pH~12, two days): slight change in the absorption intensity
(NH4)4[Mo12O28(μ-pz)8]·1.5pzH·4.5H2O [Compound 1] | – | > 2000 µM | > 2000 µM | 0.25 μg Mo/5·105 cells | 0.46 μg Mo/5·105 cells | 0.47 μg Mo/5·105 cells | 0.75 μg Mo/5·105 cells | 0.75 μg Mo/5·105 cells | absence of cell penetration | 0.22 μg Mo/5·105 cells | 0.25 μg Mo/5·105 cells | 0.24 μg Mo/5·105 cells | 0.77 μg Mo/5·105 cells | 0.83 μg Mo/5·105 cells | absence of cell penetration | complete destruction | high stability | do not show any significant cytopathic effect | concentrations at which antiviral effect was found ([3]; MDCK cells in presence of H5N1 virus, 72 h, MTT): above 62.5 μM; EC50 ([3]; presence of H5N1 virus, 72 h, nonlinear regression, read-out: EC50 (50% virus-inhibitory effective concentration as indirectly measured by MDCK cell viability)): 82.4 ± 11.4 µM; decrease in the absorption intensity ([4]; NaOH, pH~12, two days): ~ 10%
Cs2K4Na[SiW9Nb3O40] [POM93] | – | – | – | – | – | – | – | – | – | – | – | – | – | – | – | – | – | – | EC50 (Influenza A H1N1; converted from μg/mL, read-out: EC50): ~2.4 µM; EC50 (Influenza A H1N1): 7.4 ± 1.1 µg/mL; IC50 (MDCK cells): 140 µM

Reference: PMC10745505 (Molecules, 2023)
